Read-outs that look alike come from different tables or passages of the source.
Legend:
[1] = test system: apb‐ECFCs; experiment: Crystal violet cell viability assay in apb-ECFCs; format: cell-based, human; conditions: 24 h
Method: (§1) Effects on the cell viability related to compounds 1, 2 and 4 were analysed by crystal violet assays in ucb‐ECFCs and apb‐ECFCs. Both kinds of cells show a dose‐dependent sensitivity to the complexes after 24 h of treatment (Figure S30). IC50 values were on the range 1.1‐3.6 μM, ucb‐ECFCs being more sensitive than apb‐ECFCs to the compounds (Table 3), which could be associated to the increased proliferative activity of the ucb‐ECFCs.
(§2) Endothelial colony forming cells (ECFC) were isolated from umbilical cord blood from healthy births but unsuitable for transplantation (ucb‐ECFCs), or from peripheral blood of adult healthy donors (apb‐ECFCs) following the method described by Ingram et al.[57] with minor modifications. […]
(§3) For ECFCs cell viability determination, crystal violet assays were performed. […] Estimation of cell density was achieved by solubilisation of cell‐retained crystal violet with 10 % acetic acid solution and absorbance measurement at 540 nm in a Synergy HD system (BioTek). Data were analysed with SAIC50 v1.5.10 (http://gauss.inf.um.es:8080/IC50/) using the four‐parameter logistic function to calculate IC50 values according to Sebaugh et al.[58]

[2] = test system: ucb‐ECFCs; experiment: Annexin V-FITC/PI apoptosis determination in ucb-ECFCs; format: cell-based, human; conditions: 4 μM, 3 h
Method: (§4) An apoptosis determination test was performed under acute conditions, that is, incubation for a short period of time (3 h) and high concentration of complexes (4 μM; Table 4). A different response was observed regarding the origin of the ECFCs. While the cytotoxic effect on ucb‐ECFCs was similar for all complexes (ca. 20 %), mortality levels of 50 % were achieved on apb‐ECFCs with complexes 1 and 4. On the contrary, complex 2 appeared to be no toxic under these conditions.
(§5) For apoptosis assessment on ECFCs cells exposed to 1, 2 and 4 complexes, an Annexin V apoptosis detection kit (Immunostep), with FITC‐conjugated Annexin V and propidium iodide (PI), was used. Cells were incubated during 3 h with 1, 2 and 4 at 4 μM, gently detached from cell culture surface with Accutase (Corning) and resuspended in D‐PBS, and stained with FITC‐conjugated annexin V and PI according to manufacturer instructions. Data were acquired using a Gallios Flow Cytometer (Beckman Coulter), and Kaluza v2.1 (Beckman Coulter) software was used for data analysis.

[3] = test system: ucb‐ECFCs; experiment: Crystal violet cell viability assay in ucb-ECFCs; format: cell-based, human; conditions: 24 h
Method: as §1, §2, §3

[4] = test system: apb‐ECFCs; experiment: Annexin V-FITC/PI apoptosis determination in apb-ECFCs; format: cell-based, human; conditions: 4 μM, 3 h; for Early apoptotic / Late apoptotic / Necrotic / Viable: apb ECFCs; for Mortality level: apb‐ECFCs
Method: as §4, §5

[5] = test system: A549 cells; experiment: ROS production measurement (CellROX, flow cytometry); format: cell-based, human; conditions: 24 h, up to 80 % of IC50
Method: The generation of ROS was analysed by flow cytometry using a fluorogenic CellROX^TM assay kit. Complexes 1 and 4 were selected for the experiment to discriminate between the effects that might drive the presence of the gold fragment. […] Such increment might be in fact associated with the presence of the gold fragment as many reported gold species have shown to induce oxidative stress.[43] Therefore, this experiment seems to indicate that the introduction of the gold fragment activates to a higher extent the mechanisms of ROS generation in A549 cells.
ROS production measurement: 5×10^5 A549 cells/well were seeded in complete medium in flat‐bottom, 6‐well plates (3 mL/well) and allowed to attach for 24 h prior to addition of the compound. Complexes 1 and 4 were dissolved in DMSO and added to cells up to concentration of 80 % (IC50) in duplicate. Cells were incubated with the complexes for 24 h and subsequently, they were trypsinised and the CellROX®Green Flow cytometry assay kit (C10492) was used to evaluate the generation of ROS in a Gallios Flow Cytometer (Beckman Coulter) using Kaluza v2.1 software for data analysis.

[6] = test system: A549 cells; experiment: Mitochondrial transmembrane potential analysis (TMRE, flow cytometry); format: cell-based, human; conditions: 48 h
Description: TMRE is a positively charged dye that accumulates in cells with active mitochondria as consequence of their net internal negative charge but several cell insults, including chemotherapeutic agents, lead to mitochondrial depolarisation and thus TMRE incorporation fails. A shift is seen in the pattern staining for complexes 1 (Figure S29) and 4 (Figure 13) in comparison with untreated cells and this overlaps with that seen when treating cells with S63845 (positive control), a selective inhibitor of the Mcl‐1 antiapoptotic protein involved in the regulation of the mitochondrial apoptotic pathway.
Mitochondrial transmembrane potential analysis: Integrity of the mitochondrial outer membrane was evaluated by measuring disruption of mitochondrial transmembrane potential. For this assay, 10^5 A549 cells/mL were seeded in complete medium in flat‐bottom, 12‐well plates (1 mL/well) and allowed to attach for 24 h prior to addition of compounds. Cells were treated for 48 h with compound 4 at 150 μM in duplicate. Then, they were trypsinised, resuspended in 500 μl of a mixture of complete medium and 60 nM of the tetramethilrhodamine ethyl ester (TMRE) probe and incubated at 37 °C in the dark for 20 min. Finally, a total of 10 000 cells were acquired on a FACSCalibur flow cytometer (BD Biosciences) and data were analysed using the aforementioned software.

[7] = test system: A549 lung carcinoma cells; experiment: MTT-reduction cell viability assay in A549 cells; format: cell-based, human; conditions: 24 h incubation
Method: In vitro bioactivity of complexes 1 to 4 as well as their dimer precursor was determined by MTT‐reduction assays in A549 lung carcinoma cells (Table 2). […] Cells show an increased sensitivity to the heterobimetallic species bearing a phosphine or a thiocytosine group as gold ancillary ligand, complexes 2 and 4 respectively. The higher balance of the lipo‐ vs hydrophilicity of triphenylphosphine[35] of complex 2, or the bio‐friendly nature of the thiocytosine ancillary ligand[36, 37] in the case of complex 4 might promote an increase of the cell permeabilisation and thus display a greater antiproliferative activity.
Cell culture: A549 (human lung carcinoma) cell line (from ATCC, USA) was routinely cultured in high glucose DMEM medium supplemented with 5 % foetal bovine serum (FBS), L‐glutamine and penicillin/streptomycin (hereafter, complete medium).
Cell viability assays : The MTT‐reduction assay was used to analyse cell metabolic activity as an indicator for cell sensitivity to the complexes in A549 cell line. 10^5 cells/mL were seeded in complete medium in flat‐bottom, 96‐well plates (100 μL/well) and allowed to attach for 24 h prior to addition of compounds. The complexes were dissolved in DMSO and added to cells in concentrations ranging from 0.5 to 50 μM in quadruplicate. Cells were incubated with our compounds for 24 h and then 10 μL of MTT (5 mg mL^−1 in PBS) were added to each well and plates were incubated for 2 h at 37 °C. Finally, culture medium was removed and DMSO (100 μL/well) was added to dissolve the formazan crystals. The optical density was measured at 550 nm using a 96‐well multiscanner autoreader (ELISA) and IC50 was calculated. Each compound was analysed at least in three independent experiments.

[8] = test system: A549 cells; experiment: Cell death mechanism by Annexin V-DY634/7-AAD flow cytometry with or without Z-VAD-fmk; format: cell-based, human; conditions: 24 and 48 h, 30 μM Z‐VAD‐fmk
Method: For flow cytometry analysis, phosphatidylserine exposure on cell surface as an “early apoptosis” marker and cell membrane damage as necrosis indicator were evaluated with Annexin V‐DY634 (apoptosis) and the DNA‐labelling dye 7‐AAD (necrosis) staining. […] As shown in Figures 4 and S22 (top graphs), cells are distributed in three populations. Annexin V‐DY634‐only positive cells are indicative of an early apoptotic process, a 7‐AAD‐only labelled cell population represents exploded cells as a typical endpoint of necrotic cell death, and the doubly stained population implies that cells started being apoptotic and then eventually burst, a phenomenon known as “late apoptosis”. It is remarkable that late apoptosis state was easily reached at higher concentrations for both complexes. […] As both compounds activate apoptotic pathway, we wanted to unveil whether caspases were implicated in the cell death process by using the pan‐caspase inhibitor Z‐VAD‐fmk.
Cytotoxicity assays: Apoptotic and necrotic cell death was determined by measuring phosphatidylserine exposure on cell surface and cell membrane permeabilisation, respectively, in A549 cells. […] Cell death was analysed using CellQuest Pro (BD Biosciences), FlowJo 7.6.1 (Becton Dickinson (BD), USA) and GraphPad Prism 5 (GraphPad Software, USA) software.

[9] = test system: ECFCs; experiment: In vitro tube formation (angiogenic activity) assay; format: cell-based, human; conditions: 0.25 μM, 20 h, ucb- and apb-ECFCs
Method: In vitro tube formation assay is a highly informative test to probe angiogenic ability of endothelial cells.[55] This observation could be the basis to consider their potential antiangiogenic activity and develop complementary assays in more physiologically relevant models. […] The mechanisms involved in this effect deserve further research.
Tube formation assay: Endothelial cells (10 000 cell/well) suspended in cell culture medium containing each compound at 0.25 μM or vehicle (DMSO) were seeded over Cultrex® Reduced Growth Factor Basement Membrane Matrix (Trevigen) gelled (37 °C for 30 min) in wells of μ‐Slide Angiogenesis coverslips (ibidi). DMSO concentration in the medium was below 0.5 %. Cells were then incubated for a 20 h period with the treatments. Images were acquired with a Moticam 3 digital camera system (Motic) through a CK40 inverted microscope (Olympus) using a 10x objective.

[10] = test system: A549 lung carcinoma cells; conditions: cited from earlier work

| Structure (SMILES) | IC50 [1] [µM] | Early apoptotic [2] [%] | Late apoptotic [2] [%] | Necrotic [2] [%] | Viable [2] [%] | IC50 [3] [nM] | Early apoptotic [4] [%] | Late apoptotic [4] [%] | Necrotic [4] [%] | Viable [4] [%] | Mortality level [4] | ROS generation [5] | Disruption of mitochondrial transmembrane potential (TMRE staining) [6] | IC50 [7] [nM] | Cell death mechanism (effect of pan-caspase inhibitor Z-VAD-fmk) [8] | Tube formation activity of ECFCs on Cultrex matrix [9] | IC50 [10] [µM] |
| --- | --- | --- | --- | --- | --- | --- | --- | --- | --- | --- | --- | --- | --- | --- | --- | --- | --- |
| F[P-](F)(F)(F)(F)F.c1ccc([P+]2(c3ccccc3)C[P+](c3ccccc3)(c3ccccc3)[Ir-3]234([c]2ccccc2-c2cccc[n+]23)[c]2ccccc2-c2cccc[n+]24)cc1 [Complex 1, [Ir(ppy)2(dppm)]PF6] | 2.71 | 1.12 | 21.81 | 3.96 | 73.10 | 1160 | 8.30 | 51.93 | 9.02 | 30.75 | 50% | dose‐dependent increase in the generation of ROS | complete disruption of mitochondrial transmembrane potential | 1000 ± 80 | caspase‐independent cell death mechanism | reduced although not completely impaired |  |
| F[P-](F)(F)(F)(F)F.c1ccc([P+]([Au-][CH]2[P+](c3ccccc3)(c3ccccc3)[Ir-3]34([c]5ccccc5-c5cccc[n+]53)([c]3ccccc3-c3cccc[n+]34)[P+]2(c2ccccc2)c2ccccc2)(c2ccccc2)c2ccccc2)cc1 [Complex 2] | 3.52 | 0.93 | 17.24 | 5.01 | 76.82 | 2630 | 9.22 | 8.40 | 0.14 | 82.25 | no toxic |  |  | 800 ± 60 |  | reduced although not completely impaired |  |
| [Cl][AuH][CH]1[P+](c2ccccc2)(c2ccccc2)[Ir-3]23([c]4ccccc4-c4cccc[n+]42)([c]2ccccc2-c2cccc[n+]23)[P+]1(c1ccccc1)c1ccccc1 [Complex 3] |  |  |  |  |  |  |  |  |  |  |  |  |  | 1700 ± 80 |  |  |  |
| N.N.[Cl][Pt][Cl] [cisplatin, reference compound] |  |  |  |  |  |  |  |  |  |  |  |  |  |  |  |  | 20.8 ± 2.1 |
| c1cc[c]2c(c1)-c1cccc[n+]1[Ir-3]213([Cl+][Ir-3]24([Cl+]1)([c]1ccccc1-c1cccc[n+]12)[c]1ccccc1-c1cccc[n+]14)[c]1ccccc1-c1cccc[n+]13 [dimer, [Ir(ppy)2(μ‐Cl)]2] |  |  |  |  |  |  |  |  |  |  |  |  |  | > 50000 |  |  |  |

From publication PMC8361937, “Multifunctional Heterometallic Ir^III−Au^I Probes as Promising Anticancer and Antiangiogenic Agents” (Chemistry (Weinheim an Der Bergstrasse, Germany), 2021)
